Activity calls are given as the source filed them.
Columns and labels:
[1] = target: T1, Sentrin-specific protease 6 (Homo sapiens, UniProt Q9GZR1); type: functional;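 note: Luminescence-based dose-response confirmatory assay of SENP6 inhibition, following up an ultra-high-throughput screen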
T1 sequence (Q9GZR1 whole entry): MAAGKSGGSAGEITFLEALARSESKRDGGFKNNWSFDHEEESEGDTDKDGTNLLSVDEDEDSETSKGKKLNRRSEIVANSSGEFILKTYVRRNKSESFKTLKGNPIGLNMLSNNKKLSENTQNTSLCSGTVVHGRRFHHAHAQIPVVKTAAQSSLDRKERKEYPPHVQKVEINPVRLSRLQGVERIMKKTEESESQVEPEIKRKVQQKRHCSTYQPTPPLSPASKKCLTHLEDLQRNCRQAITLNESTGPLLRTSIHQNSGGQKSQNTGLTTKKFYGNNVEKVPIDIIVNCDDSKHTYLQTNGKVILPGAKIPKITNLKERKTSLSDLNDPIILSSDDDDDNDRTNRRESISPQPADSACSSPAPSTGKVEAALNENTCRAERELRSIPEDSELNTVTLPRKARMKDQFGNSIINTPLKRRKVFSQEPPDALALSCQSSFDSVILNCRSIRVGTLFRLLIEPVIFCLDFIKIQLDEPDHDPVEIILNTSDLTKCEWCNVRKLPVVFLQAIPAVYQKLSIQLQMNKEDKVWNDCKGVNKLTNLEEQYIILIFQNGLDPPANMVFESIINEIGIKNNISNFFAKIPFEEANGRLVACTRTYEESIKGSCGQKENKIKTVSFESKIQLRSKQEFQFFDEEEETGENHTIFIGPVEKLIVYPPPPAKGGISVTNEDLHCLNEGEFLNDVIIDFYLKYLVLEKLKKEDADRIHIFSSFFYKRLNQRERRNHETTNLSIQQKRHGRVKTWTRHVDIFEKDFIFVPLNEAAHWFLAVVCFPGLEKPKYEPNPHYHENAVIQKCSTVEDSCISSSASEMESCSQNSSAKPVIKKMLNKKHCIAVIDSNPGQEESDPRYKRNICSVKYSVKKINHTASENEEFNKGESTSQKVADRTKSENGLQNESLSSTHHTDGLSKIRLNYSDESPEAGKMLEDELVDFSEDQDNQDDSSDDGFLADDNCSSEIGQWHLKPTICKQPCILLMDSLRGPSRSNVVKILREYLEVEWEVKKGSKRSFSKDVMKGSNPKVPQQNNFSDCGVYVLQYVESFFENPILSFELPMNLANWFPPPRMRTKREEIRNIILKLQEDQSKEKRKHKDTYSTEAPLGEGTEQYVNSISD

[2] = target: T2, Sentrin-specific protease 7 (Homo sapiens, UniProt Q9BQF6); type: functional;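 note: Luminescence-based dose-response confirmation of ultra-high-throughput screening hits, measuring inhibition of SENP7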
T2 sequence (Q9BQF6 whole entry): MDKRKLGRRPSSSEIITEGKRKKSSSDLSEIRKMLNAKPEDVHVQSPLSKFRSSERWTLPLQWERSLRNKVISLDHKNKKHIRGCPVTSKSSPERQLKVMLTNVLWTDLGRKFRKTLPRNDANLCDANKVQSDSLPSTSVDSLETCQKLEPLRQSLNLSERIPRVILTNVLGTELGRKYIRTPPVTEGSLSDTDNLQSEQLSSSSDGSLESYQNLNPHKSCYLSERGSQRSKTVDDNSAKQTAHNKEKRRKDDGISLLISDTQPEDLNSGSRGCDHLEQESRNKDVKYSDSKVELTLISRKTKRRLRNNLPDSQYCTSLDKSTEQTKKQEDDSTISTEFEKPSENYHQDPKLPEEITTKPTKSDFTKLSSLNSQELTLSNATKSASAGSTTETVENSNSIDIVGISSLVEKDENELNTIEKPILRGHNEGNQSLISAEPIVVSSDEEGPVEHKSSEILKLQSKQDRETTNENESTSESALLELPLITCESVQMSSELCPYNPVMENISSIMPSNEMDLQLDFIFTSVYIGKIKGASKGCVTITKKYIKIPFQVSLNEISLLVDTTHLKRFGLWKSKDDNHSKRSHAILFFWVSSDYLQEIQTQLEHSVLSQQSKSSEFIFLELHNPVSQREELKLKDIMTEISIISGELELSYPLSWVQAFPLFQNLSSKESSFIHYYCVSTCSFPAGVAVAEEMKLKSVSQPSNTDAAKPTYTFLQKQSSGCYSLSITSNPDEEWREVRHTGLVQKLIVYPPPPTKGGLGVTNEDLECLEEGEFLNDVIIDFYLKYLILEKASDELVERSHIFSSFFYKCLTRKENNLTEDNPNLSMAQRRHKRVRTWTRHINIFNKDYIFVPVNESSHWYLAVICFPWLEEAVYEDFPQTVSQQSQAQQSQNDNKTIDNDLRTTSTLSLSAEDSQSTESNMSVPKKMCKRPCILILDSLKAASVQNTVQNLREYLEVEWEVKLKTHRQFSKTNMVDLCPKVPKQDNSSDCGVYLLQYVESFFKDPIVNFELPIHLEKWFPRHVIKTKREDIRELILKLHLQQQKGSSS

[3] = target: T3, Sentrin-specific protease 8 (Homo sapiens, UniProt Q96LD8); type: functional;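 note: luminescence read-out of SENP8 inhibition, dose-response confirmation following an ultra-high-throughput screen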
T3 sequence (Q96LD8 whole entry): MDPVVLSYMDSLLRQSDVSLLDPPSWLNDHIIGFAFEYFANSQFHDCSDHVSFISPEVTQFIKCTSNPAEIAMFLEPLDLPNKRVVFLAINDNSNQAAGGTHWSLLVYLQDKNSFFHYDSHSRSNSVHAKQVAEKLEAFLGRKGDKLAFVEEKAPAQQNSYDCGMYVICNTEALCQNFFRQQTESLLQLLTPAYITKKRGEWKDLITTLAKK

[4] = target: T4, Caspase-3 (Homo sapiens, UniProt P42574); type: functional;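 note: Dose-response selectivity test against caspase-3 for candidate inhibitors of sentrin-specific proteases (SENPs)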
T4 sequence (P42574 whole entry): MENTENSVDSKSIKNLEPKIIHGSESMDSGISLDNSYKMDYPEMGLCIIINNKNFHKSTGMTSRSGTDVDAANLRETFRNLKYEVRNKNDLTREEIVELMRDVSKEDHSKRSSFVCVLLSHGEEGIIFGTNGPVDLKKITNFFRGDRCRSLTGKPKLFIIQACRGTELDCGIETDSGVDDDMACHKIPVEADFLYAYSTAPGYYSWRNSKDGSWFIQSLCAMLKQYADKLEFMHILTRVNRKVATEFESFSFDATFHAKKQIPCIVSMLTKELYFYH

[5] = target: T5, Fatty acid synthase (Homo sapiens, UniProt P49327); assay: FAS thioesterase domain inhibitors, dose response, biochemical, endpoint fluorescence intensity, uHTS hits (AID 624327); type: functional;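 note: fluorescence from hydrolysis of an O-methyl fluorescein acyl ester substrate by the enzyme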
[6] = target: T5, Fatty acid synthase; assay: FAS thioesterase domain inhibitors, dose response, biochemical, kinetic fluorescence intensity (AID 624326); type: functional;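 note: rate of fluorescence rise from hydrolysis of a fluorogenic O-methyl fluorescein ester substrate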
[7] = Counterscreen for activators of the function of SWI/SNF related, matrix associated, actin dependent regulator of chromatin, subfamily a, member 2 (SMARCA2, BRM): Luminescence-based cell-based high throughput dose response assay to identify non-selective compounds using the VP16 reporter assay.; type: functional
[8] = target: SWI/SNF-related matrix-associated actin-dependent regulator of chromatin subfamily A member 2 (Homo sapiens, UniProt P51531); assay: Luminescence-based cell-based high throughput dose response assay to identify activators of the function of SWI/SNF related, matrix associated, actin dependent regulator of chromatin, subfamily a, member 2 (SMARCA2, BRM).; type: functional
[9] = target: T6, Beta-lactamase (Pseudomonas aeruginosa, UniProt Q79MP6); assay: IMP-1 metallo-beta-lactamase inhibitors, dose response, selectivity assay for VIM-2 inhibitor project, biochemical, epi-absorbance (AID 1920)
[10] = target: T6, Beta-lactamase; assay: […] counterscreen for selective VIM-2 inhibitors: dose response biochemical high throughput screening assay to identify inhibitors of IMP-1 metallo-beta-lactamase.
[11] = target: Beta-lactamase (Salmonella choleraesuis (strain SC-B67), UniProt Q5J463); assay: Epi-absorbance-based counterscreen for selective VIM-2 inhibitors: dose response biochemical high throughput screening assay to identify inhibitors of TEM-1 serine-beta-lactamase.
[12] = target: Paired box protein Pax-8 (Homo sapiens, UniProt Q06710); assay: inhibitors of PAX8-driven TPO luciferase reporter, dose response, RMG-I cells, cherry-pick (AID 687027); type: functional, cell-based;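 note: luciferase reporter driven by Pax8 target thyroperoxidase promoter measured by SteadyGlo luminescence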
[13] = inhibitors of SNCA 5'UTR-driven reporter translation, confirmation, H4 neuroglioma cells, luminescence (AID 1988); type: functional, cell-based
[14] = inhibitors of firefly luciferase expression or activity, dose response, H4 neuroglioma cells, luminescence (AID 1990); type: functional, cell-based
[15] = Luminescence Cell-Based Dose Response HTS to Identify Inhibitors of 5'UTR Stem-Loop Driven Prion Protein mRNA Translation in H4 Neuroglioblastoma Cells. [Related pubchem assays: 1827 (Project Summary), 1813 (Primary HTS)]; type: functional
[16] = target: T7, Endoribonuclease toxin MazF (Escherichia coli K-12, UniProt P0AE70); assay: fluorescent RNA oligo signal without MazF, dose response, counter-screen for MazEF activator project, biochemical, fluorescence, single-stranded RNase substrate (AID 588502); type: functional
T7 sequence (P0AE70 whole entry): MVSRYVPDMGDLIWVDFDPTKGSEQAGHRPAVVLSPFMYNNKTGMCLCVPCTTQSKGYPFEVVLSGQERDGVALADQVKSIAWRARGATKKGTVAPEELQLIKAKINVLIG

[17] = target: T7, Endoribonuclease toxin MazF; assay: MazF toxin RNase activators, dose response, biochemical, fluorescence, single-stranded RNA substrate, uHTS hits (AID 588481); type: functional
[18] = tested on: SN12K1; assay: cells; type: functional; settings: Homo sapiens
[19] = tested on: P388; assay: cells; type: functional; settings: Mus musculus
[20] = tested on: P388/ADR; assay: cells; type: functional; settings: Mus musculus

T5 sequence (P49327 whole entry, the tested form may be a part): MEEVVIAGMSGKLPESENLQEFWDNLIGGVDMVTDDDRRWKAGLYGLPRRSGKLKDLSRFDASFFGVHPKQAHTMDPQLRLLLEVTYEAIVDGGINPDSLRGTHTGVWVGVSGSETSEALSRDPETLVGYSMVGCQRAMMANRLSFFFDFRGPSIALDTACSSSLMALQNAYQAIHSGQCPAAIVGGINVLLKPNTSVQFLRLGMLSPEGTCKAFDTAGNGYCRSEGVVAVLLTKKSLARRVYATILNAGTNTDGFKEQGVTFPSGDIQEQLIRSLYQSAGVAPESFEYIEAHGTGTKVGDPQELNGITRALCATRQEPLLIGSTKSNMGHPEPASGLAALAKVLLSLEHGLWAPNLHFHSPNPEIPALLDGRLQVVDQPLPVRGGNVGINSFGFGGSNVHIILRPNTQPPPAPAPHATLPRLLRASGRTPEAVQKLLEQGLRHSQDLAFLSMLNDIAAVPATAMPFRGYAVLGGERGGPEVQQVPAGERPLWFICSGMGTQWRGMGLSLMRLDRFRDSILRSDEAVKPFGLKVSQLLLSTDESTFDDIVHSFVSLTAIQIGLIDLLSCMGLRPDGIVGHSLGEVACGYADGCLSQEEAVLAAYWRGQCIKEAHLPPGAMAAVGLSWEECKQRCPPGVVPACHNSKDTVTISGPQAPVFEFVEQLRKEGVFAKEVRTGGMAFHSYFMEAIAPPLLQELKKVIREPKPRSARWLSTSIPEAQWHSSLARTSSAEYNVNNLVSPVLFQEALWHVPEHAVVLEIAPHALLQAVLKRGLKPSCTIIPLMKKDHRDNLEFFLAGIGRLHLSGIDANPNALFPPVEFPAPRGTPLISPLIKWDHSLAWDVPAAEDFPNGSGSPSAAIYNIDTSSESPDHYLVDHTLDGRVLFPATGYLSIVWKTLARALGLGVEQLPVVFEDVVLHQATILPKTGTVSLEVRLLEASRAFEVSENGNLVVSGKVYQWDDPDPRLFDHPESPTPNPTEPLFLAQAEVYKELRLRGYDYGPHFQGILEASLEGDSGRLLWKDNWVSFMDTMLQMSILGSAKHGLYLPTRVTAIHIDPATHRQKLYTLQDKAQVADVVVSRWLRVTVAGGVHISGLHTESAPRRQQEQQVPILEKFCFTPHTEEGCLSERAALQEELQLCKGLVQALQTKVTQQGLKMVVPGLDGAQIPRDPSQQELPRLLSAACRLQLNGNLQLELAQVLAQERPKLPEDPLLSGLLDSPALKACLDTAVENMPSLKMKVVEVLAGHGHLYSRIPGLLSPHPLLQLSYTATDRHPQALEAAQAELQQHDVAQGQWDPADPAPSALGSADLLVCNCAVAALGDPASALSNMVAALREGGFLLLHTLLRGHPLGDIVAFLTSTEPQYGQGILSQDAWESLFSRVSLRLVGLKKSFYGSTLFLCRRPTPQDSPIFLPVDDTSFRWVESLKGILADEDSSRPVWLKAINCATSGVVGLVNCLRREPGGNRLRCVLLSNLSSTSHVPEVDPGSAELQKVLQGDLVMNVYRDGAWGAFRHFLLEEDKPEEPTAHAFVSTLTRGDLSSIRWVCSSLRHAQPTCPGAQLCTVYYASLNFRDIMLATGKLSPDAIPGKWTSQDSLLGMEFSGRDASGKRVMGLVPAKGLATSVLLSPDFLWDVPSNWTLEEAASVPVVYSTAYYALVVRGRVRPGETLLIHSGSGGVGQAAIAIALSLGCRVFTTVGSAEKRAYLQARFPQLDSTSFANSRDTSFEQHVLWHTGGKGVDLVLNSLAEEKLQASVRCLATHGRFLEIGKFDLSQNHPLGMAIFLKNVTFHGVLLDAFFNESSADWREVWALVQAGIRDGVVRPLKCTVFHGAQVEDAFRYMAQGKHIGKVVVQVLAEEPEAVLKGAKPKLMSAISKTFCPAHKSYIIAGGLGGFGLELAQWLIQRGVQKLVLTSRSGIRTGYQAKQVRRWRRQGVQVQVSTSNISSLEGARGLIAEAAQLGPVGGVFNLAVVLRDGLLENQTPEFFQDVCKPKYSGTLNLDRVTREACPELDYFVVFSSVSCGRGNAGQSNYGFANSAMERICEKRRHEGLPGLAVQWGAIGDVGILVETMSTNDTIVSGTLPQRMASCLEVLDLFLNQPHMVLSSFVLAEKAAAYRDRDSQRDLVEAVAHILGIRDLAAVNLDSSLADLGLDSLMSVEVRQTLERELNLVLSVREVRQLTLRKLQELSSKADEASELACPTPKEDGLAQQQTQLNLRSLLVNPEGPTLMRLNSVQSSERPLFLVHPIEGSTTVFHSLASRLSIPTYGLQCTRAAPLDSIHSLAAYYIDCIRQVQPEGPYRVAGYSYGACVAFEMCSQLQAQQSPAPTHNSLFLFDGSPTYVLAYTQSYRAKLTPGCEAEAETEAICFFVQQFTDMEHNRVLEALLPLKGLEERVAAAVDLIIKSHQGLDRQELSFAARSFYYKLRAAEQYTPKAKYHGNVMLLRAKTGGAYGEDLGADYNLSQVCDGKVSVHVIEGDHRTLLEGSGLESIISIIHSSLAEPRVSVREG
Chain of SWI/SNF-related matrix-associated actin-dependent regulator of chromatin subfamily A member 2 (P51531 whole entry): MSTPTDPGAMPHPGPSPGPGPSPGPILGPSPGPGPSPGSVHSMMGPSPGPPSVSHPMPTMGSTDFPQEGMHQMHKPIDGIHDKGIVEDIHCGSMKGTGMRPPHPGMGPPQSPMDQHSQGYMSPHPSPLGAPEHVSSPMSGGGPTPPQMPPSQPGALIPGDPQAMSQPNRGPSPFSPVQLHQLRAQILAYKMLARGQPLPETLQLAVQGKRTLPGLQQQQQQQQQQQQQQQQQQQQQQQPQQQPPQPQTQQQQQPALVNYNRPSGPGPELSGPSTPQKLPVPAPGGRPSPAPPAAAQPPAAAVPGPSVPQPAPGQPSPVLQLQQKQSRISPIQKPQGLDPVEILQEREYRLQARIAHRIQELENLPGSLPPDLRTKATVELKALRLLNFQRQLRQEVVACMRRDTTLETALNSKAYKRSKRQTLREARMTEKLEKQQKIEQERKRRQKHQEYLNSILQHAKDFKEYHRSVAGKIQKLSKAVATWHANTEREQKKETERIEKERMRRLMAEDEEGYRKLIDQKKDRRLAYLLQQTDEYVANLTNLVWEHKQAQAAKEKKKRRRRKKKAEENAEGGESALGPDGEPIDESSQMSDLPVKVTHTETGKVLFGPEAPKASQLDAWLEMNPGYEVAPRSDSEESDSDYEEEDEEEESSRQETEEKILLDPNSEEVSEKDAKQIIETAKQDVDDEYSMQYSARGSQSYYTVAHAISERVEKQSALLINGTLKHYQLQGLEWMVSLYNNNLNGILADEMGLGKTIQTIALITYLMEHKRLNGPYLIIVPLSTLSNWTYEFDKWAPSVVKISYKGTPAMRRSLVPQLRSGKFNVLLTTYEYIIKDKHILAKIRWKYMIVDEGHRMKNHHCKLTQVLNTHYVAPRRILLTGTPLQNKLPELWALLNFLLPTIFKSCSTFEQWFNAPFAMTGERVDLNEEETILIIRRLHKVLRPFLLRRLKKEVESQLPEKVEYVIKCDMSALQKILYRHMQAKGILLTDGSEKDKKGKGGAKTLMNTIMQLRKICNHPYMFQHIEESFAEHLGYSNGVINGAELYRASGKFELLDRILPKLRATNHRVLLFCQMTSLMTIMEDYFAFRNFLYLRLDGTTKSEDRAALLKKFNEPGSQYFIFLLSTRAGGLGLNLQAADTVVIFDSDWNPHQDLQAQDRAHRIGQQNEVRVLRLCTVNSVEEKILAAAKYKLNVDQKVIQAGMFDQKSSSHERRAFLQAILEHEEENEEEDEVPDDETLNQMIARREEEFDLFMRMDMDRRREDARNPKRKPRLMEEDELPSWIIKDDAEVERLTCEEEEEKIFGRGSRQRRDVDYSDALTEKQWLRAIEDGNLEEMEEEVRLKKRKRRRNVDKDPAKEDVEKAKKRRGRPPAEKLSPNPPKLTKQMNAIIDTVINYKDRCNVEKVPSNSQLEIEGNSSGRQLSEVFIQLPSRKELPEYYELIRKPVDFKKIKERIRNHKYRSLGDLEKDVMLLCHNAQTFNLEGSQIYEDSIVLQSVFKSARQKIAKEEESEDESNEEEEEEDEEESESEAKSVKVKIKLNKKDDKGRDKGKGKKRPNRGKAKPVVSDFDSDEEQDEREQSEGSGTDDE
T6 sequence (Q79MP6 whole entry): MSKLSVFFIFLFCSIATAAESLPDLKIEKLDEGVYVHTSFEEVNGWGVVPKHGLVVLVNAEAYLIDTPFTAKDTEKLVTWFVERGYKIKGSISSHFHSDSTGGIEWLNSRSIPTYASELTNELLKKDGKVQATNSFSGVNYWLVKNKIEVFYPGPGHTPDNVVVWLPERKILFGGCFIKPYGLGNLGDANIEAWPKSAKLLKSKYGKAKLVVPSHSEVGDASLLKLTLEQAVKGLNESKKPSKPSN
Chain of Beta-lactamase (Salmonella choleraesuis (strain SC-B67), UniProt Q5J463) (Q5J463 whole entry): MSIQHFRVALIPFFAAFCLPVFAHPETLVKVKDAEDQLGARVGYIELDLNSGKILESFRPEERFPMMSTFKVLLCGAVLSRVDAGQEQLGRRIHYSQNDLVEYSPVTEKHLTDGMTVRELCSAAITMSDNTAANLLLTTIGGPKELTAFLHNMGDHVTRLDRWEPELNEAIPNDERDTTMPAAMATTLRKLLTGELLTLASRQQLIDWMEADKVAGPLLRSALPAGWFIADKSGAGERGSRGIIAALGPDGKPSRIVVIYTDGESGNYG
Chain of Paired box protein Pax-8 (Q06710 whole entry): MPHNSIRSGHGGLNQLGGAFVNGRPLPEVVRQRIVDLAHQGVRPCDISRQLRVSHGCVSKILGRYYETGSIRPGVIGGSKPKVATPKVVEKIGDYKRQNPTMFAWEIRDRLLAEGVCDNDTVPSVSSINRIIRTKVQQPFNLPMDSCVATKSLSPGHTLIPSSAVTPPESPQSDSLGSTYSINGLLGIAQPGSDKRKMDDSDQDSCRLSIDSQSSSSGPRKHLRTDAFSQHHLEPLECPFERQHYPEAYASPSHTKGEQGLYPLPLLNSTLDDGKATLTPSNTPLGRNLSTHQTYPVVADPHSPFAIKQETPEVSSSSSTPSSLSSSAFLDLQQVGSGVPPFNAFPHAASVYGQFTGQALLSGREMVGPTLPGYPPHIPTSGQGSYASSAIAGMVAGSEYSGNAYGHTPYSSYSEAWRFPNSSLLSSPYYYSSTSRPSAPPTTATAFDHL

COC(=O)c1ccc(NC(=O)Nc2ccc(F)c(Cl)c2)cc1
IC50 [1]: > 100 µM (inactive)
IC50 [2]: 6.56 µM (active)
IC50 [3]: > 100 µM (inactive)
IC50 [4]: 48 µM (active)

CC(C)C(=O)Nc1ccc2nn(-c3ccc(F)cc3)nc2c1
IC50 [1]: 6.19 µM (active)
IC50 [2]: 3.03 µM (active)
IC50 [3]: 41.3 µM (active)
IC50 [4]: 8.48 µM (active)

CCCCC(CC)C(=O)Nc1cc([N+](=O)[O-])ccc1F (stereo not given)
IC50 [5]: 3.19 µM (active)
IC50 [6]: 4.44 µM (active)

COCCN1CCN(c2c(C)c(C)nc3cc(-c4cccc(OC)c4)nn23)CC1
EC50 [7]: > 91.1 µM (inactive)
EC50 [8]: > 91.1 µM (inactive)

CCCn1c(S)nnc1C(C)C
IC50 [9]: > 59.6 µM (inactive)
IC50 [10]: > 59.6 µM (inactive)
IC50 [11]: > 59.6 µM (inactive)

CN(C)CCN(C(=O)/C=C/c1cccs1)c1nc2c(F)cc(F)cc2s1
EC50 [7]: > 91.1 µM (inactive)
AC50 [12]: 8.86 µM (active)
EC50 [13]: 8.47 µM (active)
EC50 [14]: 12.5 µM (active)
EC50 [8]: > 91.1 µM (inactive)
EC50 [15]: 10.4 µM (active)

O=C(CSc1nnc2scc(-c3ccccc3)n12)c1ccc2c(c1)OCCO2
EC50 [16]: > 99 µM (inactive)
EC50 [17]: > 99 µM (inactive)

CCn1c(O)c(N=Nc2ccc3ccccc3n2)c2ccccc21
IC50 [1]: 1.11 µM (active)
IC50 [2]: 0.857 µM (active)
IC50 [3]: 1.83 µM (active)
IC50 [4]: 2.1 µM (active)

COc1ccccc1C(=O)Nc1nnc(SCC(=O)NCc2ccco2)s1
IC50 [9]: > 59.6 µM (inactive)
IC50 [10]: > 59.6 µM (inactive)
IC50 [11]: > 59.6 µM (inactive)

NC(=O)c1ccccc1NC(=O)/C=C/c1c(Cl)cccc1Cl
IC50 [1]: > 100 µM (inactive)
IC50 [2]: 6.11 µM (active)
IC50 [3]: > 100 µM (inactive)
IC50 [4]: 21.5 µM (active)

CCCn1c(O)c(N=Nc2ccc3ccccc3n2)c2ccccc21
EC50 [16]: > 99 µM (inactive)
EC50 [17]: > 99 µM (inactive)

COc1ccc([N+](=O)[O-])cc1NC(=O)C(C)OC(=O)CC1CCCC1 (stereo not given)
IC50 [5]: 6.83 µM (active)
IC50 [6]: 5.28 µM (active)

OC(C1CO1)C(O)C1CO1 (stereo not given)
GI50 [18]: 54.7 µM (inactive)
GI50 [19]: 13.5 µM (inactive)
GI50 [20]: 9.79 µM (inactive)

CC(C)(C)C(=O)OCc1ccc(C2=CC(=O)CC(C)(C)C2=O)cc1
IC50 [5]: 1.28 µM (active)
IC50 [6]: 3.9 µM (active)

COC(=O)N/N=C(\C)c1ccccc1Br
EC50 [7]: > 91.1 µM (inactive)
EC50 [8]: > 91.1 µM (inactive)

O=C1NC(O)CCN1C1OC(CO)C(O)C1O (stereo not given)
GI50 [18]: > 250 µM (inactive)
GI50 [19]: > 250 µM (inactive)
GI50 [20]: > 250 µM (inactive)

Cc1cc(C(=O)N/N=C/C(Cl)=C/c2ccccc2)c(C)o1
IC50 [1]: 22.6 µM (active)
IC50 [2]: 7.77 µM (active)
IC50 [3]: > 100 µM (inactive)
IC50 [4]: 18.2 µM (active)

CC(C)=CCc1cc(-c2oc3cc(O)cc(O)c3c(=O)c2O)ccc1O [ISOLICOFLAVONOL]
EC50 [16]: > 99 µM (inactive)
EC50 [17]: 14 µM (active)

CC/C=C\C/C=C\C/C=C\CCCCCCCC(=O)OC [METHYL LINOLENATE]
GI50 [18]: > 100 µM (inactive)
GI50 [19]: > 10 µM (inactive)
GI50 [20]: 28.2 µM (inactive)

O=C1N[C@H]2[C@H](O)[C@H](O)[C@@H](O)[C@H](O)[C@@H]2c2cc3c(c(O)c21)OCO3 [PANCRATISTATIN]
GI50 [18]: 0.047 µM (active)
GI50 [19]: 0.0366 µM (active)
GI50 [20]: 0.0406 µM (active)

Source: ChEMBL document CHEMBL1201862, “PubChem BioAssay data set” (2004)
